Molecular target: 5-HT2AR (Homo sapiens, UniProt P28223)
Experiment: Inhibition of 5-HT
Format: cell-based
Conditions: inhibition of 1 μM 5-HT-evoked Cai2+ release; compared with parent (+)-M100907

Chain of 5-HT2AR (P28223 whole entry): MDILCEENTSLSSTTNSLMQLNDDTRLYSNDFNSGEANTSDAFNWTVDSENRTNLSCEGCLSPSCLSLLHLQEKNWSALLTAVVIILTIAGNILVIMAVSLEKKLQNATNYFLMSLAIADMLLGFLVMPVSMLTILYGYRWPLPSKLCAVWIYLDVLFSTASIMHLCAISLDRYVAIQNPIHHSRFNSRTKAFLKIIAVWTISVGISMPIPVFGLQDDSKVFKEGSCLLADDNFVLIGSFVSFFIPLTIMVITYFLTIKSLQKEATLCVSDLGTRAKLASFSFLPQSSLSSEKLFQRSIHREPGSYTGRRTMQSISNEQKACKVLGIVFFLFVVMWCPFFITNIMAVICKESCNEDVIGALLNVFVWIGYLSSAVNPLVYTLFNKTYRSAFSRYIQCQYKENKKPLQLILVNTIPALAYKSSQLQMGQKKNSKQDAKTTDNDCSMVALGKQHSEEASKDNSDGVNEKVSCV

Compound	antagonist activity / potency in words
C#CCOCCOCCOc1cccc([C@H](O)C2CCN(CCc3ccc(F)cc3)CC2)c1OC [Compound 5]	slightly lower potency
COc1c(OCCOCCN=[N+]=[N-])cccc1[C@H](O)C1CCN(CCc2ccc(F)cc2)CC1 [Compound 4]	retained antagonist activity
COc1c(OCCOCCOc2cn(CCOCCOc3cccc([C@H](O)C4CCN(CCc5ccc(F)cc5)CC4)c3OC)nn2)cccc1[C@H](O)C1CCN(CCc2ccc(F)cc2)CC1 [Compound 15]	slightly lower potency
